From ChEMBL document CHEMBL1201862, “PubChem BioAssay data set” (2004)
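Five compound concentrations were applied to cells in 96-well plates for 48 hours; endpoints were derived by simple linear interpolation of the resulting dose-response curve. GI50 marks 50% less growth.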 The source made the active and inactive calls. Cut-off read from the data, not from the text of the source: active = GI50 up to about 1.1 µM and inactive = higher.

Columns and labels:
Assay in all cases: growth of human tumour cells (NCI), 48 h
MOLT-4 = test system: MOLT-4
M14 = test system: M14
SW-620 = test system: SW-620
DMS-114 = test system: DMS-114
TK-10 = test system: TK-10
HOP-62 = test system: HOP-62
NCI-H522 = test system: NCI-H522
ACHN = test system: ACHN
KM12 = test system: KM12
CCRF-CEM = test system: CCRF-CEM
CAKI-1 = test system: CAKI-1
SNB-78 = test system: SNB-78
HCT-15 = test system: HCT-15
Malme-3M = test system: Malme-3M
A549 = test system: A549
786-0 = test system: 786-0
DMS-273 = test system: DMS-273
SR = test system: SR
SF-268 = test system: SF-268
COLO 205 = test system: COLO 205
HCC 2998 = test system: HCC 2998
SK-MEL-2 = test system: SK-MEL-2
K562 = test system: K562
OVCAR-5 = test system: OVCAR-5
NCI-H460 = test system: NCI-H460
SNB-19 = test system: SNB-19
HT-29 = test system: HT-29
UO-31 = test system: UO-31
HOP-18 = test system: HOP-18
M19-MEL = test system: M19-MEL
SK-MEL-5 = test system: SK-MEL-5
SNB-75 = test system: SNB-75
HL-60 = test system: HL-60
UACC-257 = test system: UACC-257
OVCAR-3 = test system: OVCAR-3
U-251 = test system: U-251
HCT-116 = test system: HCT-116
NCI-H226 = test system: NCI-H226
DLD-1 = test system: DLD-1
EKVX = test system: EKVX
LOX IMVI = test system: LOX IMVI
SK-MEL-28 = test system: SK-MEL-28
SN12C = test system: SN12C
OVCAR-8 = test system: OVCAR-8
OVCAR-4 = test system: OVCAR-4
RPMI-8226 = test system: RPMI-8226
SF-295 = test system: SF-295
SF-539 = test system: SF-539
XF498 = test system: XF498
NCI-H23 = test system: NCI-H23
HOP-92 = test system: HOP-92
A498 = test system: A498
IGROV-1 = test system: IGROV-1
RXF 393 = test system: RXF 393
SK-OV-3 = test system: SK-OV-3
MCF7 = test system: MCF7
KM-20L2 = test system: KM-20L2
UACC-62 = test system: UACC-62
NCI/ADR-RES = test system: NCI/ADR-RES

Measured: GI50

COc1ccccc1/C=C1\C(=O)N(C(=O)Cc2ccccc2)N=C1C
inactive: MOLT-4 > 100 µM | M14 > 100 µM | SW-620 > 100 µM | DMS-114 > 100 µM | TK-10 > 100 µM | HOP-62 > 100 µM | NCI-H522 > 100 µM | ACHN > 100 µM | KM12 > 100 µM | CCRF-CEM > 100 µM | CAKI-1 > 100 µM | SNB-78 > 100 µM | Malme-3M > 100 µM | A549 > 100 µM | 786-0 > 100 µM | DMS-273 > 100 µM | SR > 100 µM | SF-268 > 100 µM | COLO 205 > 100 µM | HCC 2998 > 100 µM | SK-MEL-2 > 100 µM | K562 > 100 µM | OVCAR-5 > 100 µM | NCI-H460 > 100 µM | SNB-19 > 100 µM | HT-29 > 100 µM | UO-31 > 100 µM | HOP-18 13.1 µM | M19-MEL > 100 µM | SK-MEL-5 > 100 µM | SNB-75 > 100 µM | HL-60 > 100 µM | UACC-257 > 100 µM | OVCAR-3 > 100 µM | U-251 > 100 µM | HCT-116 > 100 µM | NCI-H226 > 100 µM | DLD-1 > 100 µM | EKVX > 100 µM | LOX IMVI > 100 µM | SK-MEL-28 > 100 µM | SN12C > 100 µM | OVCAR-8 > 100 µM | OVCAR-4 > 100 µM | RPMI-8226 > 100 µM | SF-295 > 100 µM | SF-539 > 100 µM | XF498 > 100 µM | NCI-H23 > 100 µM
> 100 µM: HCT-15

O=C(NC(Cc1ccc(I)cc1)C(=O)O)c1ccc(I)cc1 (stereo not drawn)
inactive: MOLT-4 51.5 µM | HOP-92 66.7 µM | A498 > 100 µM | DMS-114 35.8 µM | IGROV-1 > 24.4 µM | RXF 393 > 100 µM | HOP-62 72.3 µM | NCI-H522 38.8 µM | SK-OV-3 > 100 µM | KM12 > 100 µM | CCRF-CEM 48.2 µM | CAKI-1 > 100 µM | SNB-78 > 89.3 µM | Malme-3M 67.1 µM | A549 98.6 µM | DMS-273 94.8 µM | SF-268 > 60 µM | MCF7 > 50.4 µM | COLO 205 > 100 µM | HCC 2998 > 41.7 µM | SK-MEL-2 > 80.4 µM | K562 59.6 µM | OVCAR-5 > 100 µM | NCI-H460 57.9 µM | SNB-19 54.7 µM | HT-29 > 100 µM | KM-20L2 > 94.8 µM | UO-31 14.5 µM | HOP-18 > 100 µM | M19-MEL 72.3 µM | SK-MEL-5 > 75.3 µM | SNB-75 21.2 µM | HL-60 > 62.1 µM | UACC-257 > 100 µM | OVCAR-3 41.5 µM | U-251 62.1 µM | HCT-116 54.1 µM | NCI-H226 > 100 µM | DLD-1 > 100 µM | EKVX > 51.2 µM | LOX IMVI > 100 µM | SK-MEL-28 53.3 µM | SN12C > 100 µM | UACC-62 29.6 µM | OVCAR-8 > 74.8 µM | OVCAR-4 51.4 µM | RPMI-8226 40.3 µM | SF-295 > 100 µM | SF-539 > 74 µM | XF498 > 66.4 µM | NCI-H23 > 80.2 µM | NCI/ADR-RES > 100 µM
99.1 µM: HCT-15
